We go through two molecules from patent publication US10570177B2, “P3 peptidylic inhibitors for treating CAG-repeat RNA toxicity in polyglutamine diseases” (The Chinese University of Hong Kong, priority 2017, dated 2020).

Series [1] in a line: Plasma pharmacokinetic study in SD rat. Particulars: for AUC0-last: Intranasal administration (pre-treated with 0.5% chitosan). The procedure:
SD rats (180-200 g) were anesthetized with an intraperitoneal injection of ketamine (60 mg/kg) and xylazine (6 mg/kg) and received a minor surgery of cannulation with a polythene tube (0.4 mm i.d., 0.8 mm o.d., Harvard Apparatus, Holliston, Mass., USA) in the left jugular vein. The rats received an overnight recovery with free access to food and water. […] For the pharmacokinetic study, after the drug administration, blood samples were collected from the catheter at appropriate time intervals (2, 5, 10, 15, 20, 30, 45, 60, and 90 min). After each collection, 0.2 mL of saline containing 25 IU heparin was injected to compensate for the blood loss. Plasma was collected after centrifugation at 8000 rcf for 3.5 min and stored at −80° C. until analysis. For brain uptake study, at 20 min, the rat was anesthetized and perfused by 500 mL saline, and the whole brain was collected. The brain was wiped by tissue paper to remove excess water, meninges and blood vessels followed by storage at −80° C. until analysis.
Aliquot of plasma sample (80 μL) was mixed with 160 μL acetonitrile. The mixture was vortexed for 1 min and followed by centrifugation at 13000 rcf for 10 min. The supernatant was collect and subjected to LC/MS/MS analysis.
Agilent 6430 Triple Quadrupole LC/MS/MS system (Agilent Technologies, CA, USA) was employed for the analysis. For analysis of P3V8, chromatographic separation was achieved on a SunFire C8 Column (250 mm×4.6 mm, 5 μm). The mobile phase of water containing 0.2% formic acid (A) and acetonitrile (B) was used with a gradient elution (0-5 min, 20-70% B). The flow rate was 0.8 mL/min. Multiple reactions monitoring (MRM) with fragmentation transition of 500 to 129 in positive ion mode was employed for quantization of P3V8. […] Mobile phase of water (A) and acetonitrile (B) was used. The gradient elution for plasma samples was 0-4 min, 30-95% B, and for brain samples was 0-9 min, 10-95% B. The flow rate was 0.8 mL/min.
Plasma concentration verse time profiles were analyzed by WinNonlin (Pharsight Corporation, Mountain View, Calif., USA, Version 2.1) to obtain the pharmacokinetics parameters. Other data were analyzed by one-way ANOVA followed by post hoc Tukey test or unpaired t-test. “*”, “**”, “***” and “****” represent P<0.05, P<0.01, P<0.001 and P<0.0001 respectively, which are considered statistically significant.

The next series deals with DsRedCAG0 Drosophila. Nature of the series: Pseudopupil assay in DsRedCAG0 control Drosophila (toxicity of peptide). Format: in vivo. Particulars: up to 50 μM. Here is the method: (§1) Because of the aim to develop P3V8 into a potent inhibitor that targets RNA toxicity in degenerating cells within the nervous system, it was assessed whether P3V8 had deleterious effects on neuronal cells by determining lactate dehydrogenase release in the culturing medium of rat cortical neurons.
Flies were raised at 21.5° C. on cornmeal medium supplemented with dry yeast. Fly lines bearing UAS-DsRedCAG0 and UAS-DsRedCAG100 were kind gifts of Professor Nancy Bonini (University of Pennsylvania, USA). The gmr-GAL4 fly line was obtained from Bloomington Drosophila Stock Center. For pseudopupil assay, third instar larvae were fed with various amount of respective peptides dissolved in 2% sucrose solution for 2 hr and then continued to culture in standard fly food at 21.5° C.^38. Pseudopupil assay was performed on 12 day-old adult flies as mentioned previously^39. Images were captured by SPOT Insight CCD camera controlled by the SPOT Advanced software (Diagnostic instruments Inc.). Image processing was performed using the Adobe Photoshop CS software (Adobe). Each experiment was repeated at least 3 times (n=10 fly heads), and consistent results were obtained. […] Viability from egg-to-adult was calculated as the number of adult flies collected divided by the number of eggs examined. […]

Series [2] has as its system EGFPCAG78 RNA-expressing HEK293 cells. Format: cell-based. The procedure:
HEK293 cells were cultured at 37° C. with 5% CO2 in DMEM supplemented with 10% FBS and 1% penicillin-streptomycin. Primary rat cortical neurons were isolated and cultured as previously described^37. Transient transfection of HEK293 cells was performed using Lipofectamine 2000 (Life Technologies). P3V8 were delivered to HEK293 cells using the DeliverX (DX) Peptide Transfection Kit (Affymetrix) 4 hr after DNA transfection. At least two batches of independently synthesized peptides were used in the experiments.
HEK 293 cells were seeded on a 24-well plate at a density of 0.5×10^5, and pEGFPCAG78 DNA construct was used to transfect the cells. For P3V8 treatment, different concentrations of P3V8 as indicated in the figure were transfected by DeliverX transfectant 4 hr after DNA transfection. […] Seventy-two hours after treatment, LDH enzyme activity in the cell culture medium was measured as described before. Experimental groups were normalized to the untransfected control. After normalization, data were analyzed using the dose response-inhibition curve (nonlinear regression-variable slope) to determine the IC50 value (Prism6 software, GraphPad Software, Inc.). Each experiment was repeated at least 3 times.

The test system of series [3] is primary rat cortical neurons. Nature of the series: LDH cytotoxicity in primary rat cortical neurons. Particulars: 0.01 nM to 1 μM, 72 hr. Format: cell-based. Here is the method: A density of 5×10^5 of primary rat cortical neurons were seeded on culture dish and individually cultured in medium containing 0.01, 0.1, 1, 5, 10, 50, 100, 250, 500, 750, and 1000 nM of P3V8 peptide (transfected with DeliverX). The lactate dehydrogenase (LDH) cytotoxicity activity was measured 72 hr post-treatment. Fold change of LDH activity was normalized to untreated cells. Data are expressed as mean±S.E.M. for 3 independent experiments. NS indicates no significance.
The LDH cytotoxicity activity was measured 72 hr posttreatment. Fold change of LDH activity was normalized to untreated cells. Data are expressed as mean±S.E.M. for 3 independent experiments. NS indicates no significance.
as §1

The mark [4] stands for this setting: Intravenous administration, 3 μmol/kg, SD rats.

Entries after “also recorded” stand apart in the source; their conditions may differ. Marks after values point to notes of the source that are not given here. Residues, ends and D or L forms follow the SMILES beside them. *: point of attachment. Palmitoyl = CCCCCCCCCCCCCCCC(=O)*

Broadly, the Cmax is the peak of the concentration-time curve. On to Ac-DGKSKGIAYIEFK-NH2 [P3V8], for which the AUC0-last in series [1] (3 μmol/kg, SD rats) turned out to be 85 ± 32 nmol·min/L. The molecule further yielded a peak concentration (Cmax) in series [1] (setting [4]) of 452 ± 22 nM. Also, the T1/2 entry in series [1] (rat, in vivo, iv, 3 umol/kg) is “too short to be determined”. For the same molecule, the “effect on DsRedCAG0 Drosophila” value with DsRedCAG0 Drosophila is given as “did not show any observable effect”. Moreover, in series [2], the “effect on expanded CAG RNA-induced cytotoxicity” value is listed as “effectively alleviate the cytotoxicity”. For the same molecule, the “effect on expanded CAG RNA-induced cell death” value in series [2] (peptide alone, without DeliverX) is reported as “did not exert any cellular effect”.

The term IC50 denotes the concentration at which inhibition is half-maximal. As to `CCCCCCCCCCCCCCCC(=O)N[C@@H](CC(=O)O)C(=O)NCC(=O)N[C@@H](CCCCN)C(=O)N[C@@H](CO)C(=O)N[C@@H](CCCCN)C(=O)NCC(=O)N[C@H](C(=O)N[C@@H](C)C(=O)N[C@@H](Cc1ccc(O)cc1)C(=O)N[C@H](C(=O)N[C@@H](CCC(=O)O)C(=O)N[C@@H](Cc1ccccc1)C(=O)N[C@@H](CCCCN)C(N)=O)[C@@H](C)CC)[C@@H](C)CC` [L1P3V8] (Palmitoyl-DGKSKGIAYIEFK-NH2), the “cytotoxicity (LDH release)” value in series [3] is “no cytotoxic effects; also recorded: no cytotoxicity”. In addition, the AUC0-last in series [1] (3 μmol/kg, SD rats) is 2277 ± 558*** min * nmol/L. In addition, in series [1] (setting [4]), the highest level (Cmax) was 10400 ± 1220 nM and the T1/2 stood at 17 min. In addition, the “plasma concentration 90 min after dosing” value in series [1] (intravenous, 3 μmol/kg) stood at 190 nM. For the same molecule, the “effect on DsRedCAG0 Drosophila” value with DsRedCAG0 Drosophila is reported as “no cytotoxic effects”. Moreover, the 50% inhibitory concentration (IC50) in series [2] (72 hr, read-out: IC50 (inhibition of cell death, LDH)) was ~100 nM.
